Measured values as given in publication PMC3043298, “Development of Novel In Silico Model to Predict Corneal Permeability for Congeneric Drugs: A QSPR Approach” (Journal of Biomedicine and Biotechnology, 2011).
Where a name gives a salt, the structure may show the parent alone.

How the values were obtained:
in vivo = settings: both, New Zealand albino, rabbit; for AUC / Cmax / Tmax: topical or ocular
Experimental: In both groups, individual fluoroquinolones were dissolved at concentration of 0.1%. Thus, the total fluoroquinolones concentration in group A and group B were 0.4% and 0.5%, respectively. Sterile boric acid (1.9% w/v) in water was used as the aqueous media and the final formulations were filtered using 0.22 μ filter and autoclaved further before use.
Study protocol and experimental procedures were approved by the Institutional Animal Ethics Committee of All India Institute of Medical Sciences (AIIMS), New Delhi, India. New Zealand albino rabbits of either sex (1.5–2.0 kg) were obtained from Central Animal Facility, AIIMS. Animals were housed at standard laboratory conditions temperature-controlled room at 24 ± 2°C and humidity 55 ± 15% and given food and water ad libitum. All experiments were performed in accordance to the Association for Research in Vision and Ophthalmology (ARVO) statement for the use of animals in ophthalmic and vision research.
The sterile cocktail formulations of group A and group B were individually instilled (50 μL) on the lower fornix of rabbit eyes (n = 4) with the help of a calibrated micropipette. […] For each time point, a volume amounting to 50 μL of aqueous humor was aspirated through the corneal surface. The aqueous humor samples obtained were stored at −80°C until quantification by HPLC.
A Thermo Finnigan (Thermo Electron Corporation, USA) HPLC equipped with degasser, quaternary pump, autosampler, and PDA detector was employed for quantification of fluoroquinolones in samples. In the chromatographic quantification, analytical separation was performed using a C18 Symmetry Shield column (4.6 × 150 mm, 5 μm, Waters, USA) under a gradient flow of methanol, acetonitrile, and potassium phosphate buffer (20 mM, pH 2.5) at different ratio and time. For each spiked compound an external calibration curve was plotted and the analyte's spectra was assessed by matching them with custom made PDA spectra of inbuilt library of Chromquest version 4 (Thermo Electron Corporation, USA).
The dried concentrate was reconstituted with 100 μL mixture of water and acetonitrile (1 : 1), and 20 μL of the obtained supernatant was injected for quantification.
In Vivo Data Permeability coefficients (logPC) were obtained from controlled in vivo experiment conducted in rabbits using cassette dosing (N-in-One) approach.

[1] = Experimentally derived Δlog P by shake flask method (OECD No. 107 and 117); format: physicochemical; settings: difference of log P(o/w) and log P(cyclohexane/water)

Row | logPC (30 min) (in vivo) | logPC (240 min) (in vivo) | AUC (in vivo) | Cmax (in vivo) | Tmax (in vivo) | ΔlogP (Cyclohexane-Octanol) [1] | Compound
1 | −5.006 | −6.628 | 1180 ng·h/mL | 682 ± 904 ng/mL | 0.5 h | 0.526 | COc1c(N2CCNC(C)C2)c(F)cc2c(=O)c(C(=O)O)cn(C3CC3)c12 (stereo not shown) [Gatifloxacin]
2 | −5.519 | −6.859 | 833 ng·h/mL | 266 ± 46 ng/mL | 1 h | 1.113 | CCn1cc(C(=O)O)c(=O)c2cc(F)c(N3CCNC(C)C3)c(F)c21 (stereo not shown) [Lomefloxacin HCl, Lomefloxacin]
3 | −5.051 | −6.382 | 2850 ng·h/mL | 456 ± 59 ng/mL | 1 h | 0.051 | CCn1cc(C(=O)O)c(=O)c2cc(F)c(N3CCNCC3)cc21 [Norfloxacin]
4 |  |  |  |  | 1 h | 0.734 | C[C@H]1COc2c(N3CCN(C)CC3)c(F)cc3c(=O)c(C(=O)O)cn1c23 [Levofloxacin]
5 |  |  |  |  | 1 h | 0.759 | CC1COc2c(N3CCN(C)CC3)c(F)cc3c(=O)c(C(=O)O)cn1c23 (stereo not shown) [Ofloxacin]
6 | −4.753 | −6.396 | 1770 ng·h/mL | 1150 ± 514 ng/mL | 0.5 h | 1.025 | C[C@@H]1CN(c2c(F)c(N)c3c(=O)c(C(=O)O)cn(C4CC4)c3c2F)C[C@H](C)N1 [Sparfloxacin]
7 |  |  | 1040 ng·h/mL | 594 ± 294 ng/mL | 0.5 h |  | COc1c(N2C[C@@H]3CCCN[C@@H]3C2)c(F)cc2c(=O)c(C(=O)O)cn(C3CC3)c12 [Moxifloxacin]
